Assay results taken from patent US11788061B2, “Method for producing mesenchymal stem cells that inhibit proliferation of cancer cells” (priority 2016, dated 2023).

Key:
Assay type in all cases: cell-based, human
Vit.C-MSCs [1] = test: Evaluation of toxicity of aspirin on Vit.C-MSCs (cck-8); details: aspirin concentration of 5 mM or less, 24 hours, cck-8 absorbance at 450 nm
Method: The Vit.C-MSCs cultured in a medium containing vitamin C of Example 1 were seeded on a 96-well cell culture plate at a concentration of 1×10^4 cells/plate, and then incubated overnight for cell adherence and stabilization. Then, the cells were cultured in a fresh RKCM-N medium, that is, keratinocyte-SFM containing 5% FBS, 2 mM NAC, 0.2 mM ascorbic acid, 0.09 mM calcium, 5 ng/ml rEGF, 5 μg/ml insulin and 74 ng/ml hydrocortisone, supplemented with aspirin in various concentrations of 0.005 mM, 0.001 mM, 0.05 mM, 0.1 mM, 0.5 mM, 1 mM, 5 mM and 10 mM, for 24 hours. A cck-8 (cell counting Kit-8, Dojindo) solution (10 μl/100 μl) was added to each well and reacted for 2 hours, and the absorbance at 450 nm was measured using a plate reader (Lonza).

Vit.C-MSCs [2] = test: Characteristics of Vit.C-MSCs cultured in aspirin-containing medium (microscope, Luna automated cell counter); details: aspirin concentration of 1 mM or less, 24 hours
Method: The Vit.C-MSCs cultured in a medium containing vitamin C of Example 1 were incubated for 2 days for adherence and stabilization. Then, the Vit.C-MSCs were cultured in fresh RKCM-N medium supplemented with concentrations of 0.1 mM, 0.5 mM, 1 mM and 10 mM of aspirin for 24 hours. The cell morphologies of Vit.C-MSCs by aspirin were monitored with an […] (100× magnification, Leica DMIL) (FIG. 2), and the proliferation rate, viability and cell size were analyzed using a Luna automated cell counter (Logoy) (FIG. 3).

[3] = tested on: CD marker expression on the stem cell surface; test: Surface CD marker expression by FACS, overall statement; details: 0.1 mM, 0.5 mM and 1 mM of aspirin, 24 hours
Method: The Vit.C-MSCs cultured in a medium containing vitamin C were cultured for 2 days for adherence and stabilization, and were cultured in fresh RKCM-N media supplemented with aspirin at concentrations of 0.1 mM, 0.5 mM and 1 mM for 24 hours. The CD marker expression on the stem cell surface in the following Table 2 was compared between two types of MSCs, that is, Vit.C-MSCs and ASP-Vit.C-MSCs cultured in aspirin using FACS.

## CC(=O)Oc1ccccc1C(=O)O [aspirin]
Vit.C-MSCs [1]
  cytotoxicity of Vit.C-MSCs: almost no cytotoxicity
Vit.C-MSCs [2]
  cell size of stem cells: did not affect
  morphology of stem cells: did not affect
  proliferation rate of stem cells: did not affect
  viability of stem cells: did not affect
[3]
  CD marker expression on the stem cell surface: not changed
